Experimental data as given in patent publication US20240246967A1, “AXL COMPOUNDS” (ARCUS BIOSCIENCES, INC., priority 2021, published 2024).

What was measured:
[1] = target: T1, human MER (Homo sapiens, UniProt Q12866); assay: HTRF KinEASE-TK biochemical potency assay, MER; conditions: 1 nM MER, 700 μM ATP, 800 nM TK Substrate-biotin
T1 construct: purchased Invitrogen
T1 sequence (Q12866 21-999): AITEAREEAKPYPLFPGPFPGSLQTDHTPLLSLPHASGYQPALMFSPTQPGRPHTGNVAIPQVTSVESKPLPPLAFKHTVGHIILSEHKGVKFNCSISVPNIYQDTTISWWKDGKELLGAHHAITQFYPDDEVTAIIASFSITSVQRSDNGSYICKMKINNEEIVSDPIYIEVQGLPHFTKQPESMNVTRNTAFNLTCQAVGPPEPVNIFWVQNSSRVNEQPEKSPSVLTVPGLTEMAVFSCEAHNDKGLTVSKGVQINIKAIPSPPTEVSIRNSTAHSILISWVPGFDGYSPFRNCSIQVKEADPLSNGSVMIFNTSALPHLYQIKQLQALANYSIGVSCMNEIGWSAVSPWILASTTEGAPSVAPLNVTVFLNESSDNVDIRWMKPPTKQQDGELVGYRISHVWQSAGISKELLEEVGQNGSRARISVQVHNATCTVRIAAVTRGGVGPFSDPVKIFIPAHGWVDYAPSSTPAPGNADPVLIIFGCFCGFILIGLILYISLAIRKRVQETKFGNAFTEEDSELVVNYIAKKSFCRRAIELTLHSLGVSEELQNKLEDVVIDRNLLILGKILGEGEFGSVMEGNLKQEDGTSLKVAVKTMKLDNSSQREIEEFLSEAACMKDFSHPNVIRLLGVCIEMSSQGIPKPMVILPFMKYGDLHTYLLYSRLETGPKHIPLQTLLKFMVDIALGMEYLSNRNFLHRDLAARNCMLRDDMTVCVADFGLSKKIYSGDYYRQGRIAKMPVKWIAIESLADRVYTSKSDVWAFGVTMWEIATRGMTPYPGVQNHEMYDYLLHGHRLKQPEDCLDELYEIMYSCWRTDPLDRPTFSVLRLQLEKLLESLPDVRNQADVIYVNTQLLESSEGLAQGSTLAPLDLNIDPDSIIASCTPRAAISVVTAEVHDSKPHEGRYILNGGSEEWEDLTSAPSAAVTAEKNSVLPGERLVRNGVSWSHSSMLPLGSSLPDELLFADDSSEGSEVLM
In short: (§1)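 Recombinant human kinase preincubated 1 h at RT with compound, then reacted 2 h at RT with final 5 nM AXL or 1 nM TYRO3/MER, 800 nM TK Substrate-biotin and 700 μM ATP in HEPES pH 7.4, 10 mM MgCl2, 1% DMSO. Phosphorylation read by HTRF 665/620 ratio, expressed as percent activity.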

[2] = target: T2, human TYRO3 (Homo sapiens, UniProt Q06418); assay: HTRF KinEASE-TK biochemical potency assay, TYRO3; conditions: 1 nM TYRO3, 700 μM ATP, 800 nM TK Substrate-biotin
T2 construct: purchased Invitrogen
T2 sequence (Q06418 41-890): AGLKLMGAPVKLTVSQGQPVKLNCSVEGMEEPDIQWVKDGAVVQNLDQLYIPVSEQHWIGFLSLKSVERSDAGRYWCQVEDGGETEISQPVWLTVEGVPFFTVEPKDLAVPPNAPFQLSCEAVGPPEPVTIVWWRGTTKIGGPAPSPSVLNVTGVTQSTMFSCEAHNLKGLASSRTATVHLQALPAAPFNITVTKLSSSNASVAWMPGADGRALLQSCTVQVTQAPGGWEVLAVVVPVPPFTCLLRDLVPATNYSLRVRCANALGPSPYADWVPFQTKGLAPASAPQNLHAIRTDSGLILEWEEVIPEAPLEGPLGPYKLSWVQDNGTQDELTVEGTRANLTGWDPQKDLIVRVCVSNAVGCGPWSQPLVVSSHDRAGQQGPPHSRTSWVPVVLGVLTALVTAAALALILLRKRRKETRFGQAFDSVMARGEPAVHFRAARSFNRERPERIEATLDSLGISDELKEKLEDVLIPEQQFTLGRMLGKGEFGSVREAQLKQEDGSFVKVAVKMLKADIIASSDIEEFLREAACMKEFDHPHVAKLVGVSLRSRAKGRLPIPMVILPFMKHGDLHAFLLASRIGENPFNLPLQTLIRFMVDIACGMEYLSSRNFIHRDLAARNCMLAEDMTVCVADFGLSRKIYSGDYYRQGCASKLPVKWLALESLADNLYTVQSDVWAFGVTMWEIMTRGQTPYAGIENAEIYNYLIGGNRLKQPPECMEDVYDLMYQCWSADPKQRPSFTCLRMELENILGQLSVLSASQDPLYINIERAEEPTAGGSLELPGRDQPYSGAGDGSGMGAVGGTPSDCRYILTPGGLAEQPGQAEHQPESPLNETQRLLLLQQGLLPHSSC
In short: as §1

Structure (SMILES) | IC50 [1] [nM] | IC50 [2] [nM]
COCCNC(=O)c1ccc(-c2n[nH]c3ncc(-c4ccc5c(c4)CCC(C)(N4CCC[C@H]4C)CC5)cc23)cc1 (stereo partly drawn) [Example 72, N-(2-Methoxyethyl)-4-(5-{7-methyl-7-[(2R)-2-methylpyrrolidin-1-yl]-6,7,8,9-tetrahydro-5H-benzo[7]annulen-2-yl}-1H-pyrazolo[3,4-b]pyridin-3-yl)benzamide] | > 1000 | 100 to 1000
CC1(N2CCOCC2)CCc2ccc(-c3cnc4[nH]nc(-c5ccc(S(=O)(=O)C6CC6)cc5)c4c3)cc2CC1 (centres unmarked) [Example 2, 4-(2-{3-[4-(Cyclopropanesulfonyl)phenyl]-1H-pyrazolo[3,4-b]pyridin-5-yl}-7-methyl-6,7,8,9-tetrahydro-5H-benzo[7]annulen-7-yl)morpholine] | > 1000 | > 1000
C[C@@H]1CCCN1C1CCc2ccc(-c3cnc4[nH]nc(-c5cnc(C(C)(C)O)c(Cl)c5)c4c3)cc2CC1 (stereo partly drawn) [Example 65, 2-[3-Chloro-5-(5-{7-[(2R)-2-methylpyrrolidin-1-yl]-6,7,8,9-tetrahydro-5H-benzo[7]annulen-2-yl}-1H-pyrazolo[3,4-b]pyridin-3-yl)pyridin-2-yl]propan-2-ol] | 100 to 1000 | 100 to 1000
CC1(N2CCC[C@@H]2CO)CCc2ccc(-c3cnc4[nH]nc(-c5ccc(S(=O)(=O)C6CC6)cc5)c4c3)cc2CC1 (stereo partly drawn) [Example 3, [(2R)-1-(2-{3-[4-(Cyclopropanesulfonyl)phenyl]-1H-pyrazolo[3,4-b]pyridin-5-yl}-7-methyl-6,7,8,9-tetrahydro-5H-benzo[7]annulen-7-yl)pyrrolidin-2-yl]methanol] | 100 to 1000 | < 100
NC(=O)c1ccc(-c2n[nH]c3ncc(-c4ccc5c(c4)CCC(N4CCCC4)CC5)cc23)cc1F (centres unmarked) [Example 81, 2-Fluoro-4-(5-(7-(pyrrolidin-1-yl)-6,7,8,9-tetrahydro-5H-benzo[7]annulen-2-yl)-1H-pyrazolo[3,4-b]pyridin-3-yl)benzamide] | 100 to 1000 | < 100
NS(=O)(=O)c1ccc(-c2n[nH]c3ncc(-c4ccc5c(c4)CCN(C4CCCC4)CC5)cc23)cc1Cl [Example 92, 2-Chloro-4-(5-(3-cyclopentyl-2,3,4,5-tetrahydro-1H-benzo[d]azepin-7-yl)-1H-pyrazolo[3,4-b]pyridin-3-yl)benzenesulfonamide] | 100 to 1000 | 100 to 1000
COC1CCN(C(=O)c2ccc(-c3n[nH]c4ncc(-c5ccc6c(c5)CC[C@@H](N5CCCC5)CC6)cc34)cc2Cl)CC1 [Example 66, (S)-(2-Chloro-4-(5-(7-(pyrrolidin-1-yl)-6,7,8,9-tetrahydro-5H-benzo[7]annulen-2-yl)-1H-pyrazolo[3,4-b]pyridin-3-yl)phenyl)(4-methoxypiperidin-1-yl)methanone] | 100 to 1000 | < 100

Continued, values first:

IC50 [1] [nM] | IC50 [2] [nM] | Structure (SMILES)
100 to 1000 | < 100 | NC(=O)c1ccc(-c2n[nH]c3ncc(-c4ccc5c(c4)CCC(N4CCCC4)CC5)cc23)cc1 (centres unmarked) [Example 78, 4-(5-(7-(Pyrrolidin-1-yl)-6,7,8,9-tetrahydro-5H-benzo[7]annulen-2-yl)-1H-pyrazolo[3,4-b]pyridin-3-yl)benzamide]
< 100 | < 100 | CCC1(N2CCC[C@H]2C)CCc2ccc(-c3cnc4[nH]nc(-c5ccc(C(N)=O)c(Cl)c5)c4c3)cc2CC1 (stereo partly drawn) [Example 73, 2-Chloro-4-(5-{7-ethyl-7-[(2R)-2-methylpyrrolidin-1-yl]-6,7,8,9-tetrahydro-5H-benzo[7]annulen-2-yl}-1H-pyrazolo[3,4-b]pyridin-3-yl)benzamide]
< 100 | < 100 | CCC1(N2CCC[C@H]2CO)CCc2ccc(-c3cnc4[nH]nc(-c5ccc(C(N)=O)c(Cl)c5)c4c3)cc2CC1 (stereo partly drawn) [Example 75, 2-Chloro-4-(5-{7-ethyl-7-[(2S)-2-(hydroxymethyl)pyrrolidin-1-yl]-6,7,8,9-tetrahydro-5H-benzo[7]annulen-2-yl}-1H-pyrazolo[3,4-b]pyridin-3-yl)benzamide]
